# From patent US20240197728A1, “METHODS AND PHARMACEUTICAL COMPOSITIONS FOR TREATING REFRACTORY EPILEPSY” (INSERM (INSTITUT NATIONAL DE LA SANTÉ ET DE LA RECHERCHE …, priority 2021, published 2024)
# Columns and labels:
# KCC2 [1] = assay: Surface biotinylation and immunoblot of KCC2 in hippocampal cultures; assay type: cell-based, rat; details: for effect on total KCC2 expression: hippocampal cultures
# Description: Primary cultures of hippocampal neurons were prepared as previously described. Briefly, hippocampi were dissected from embryonic day 18-19 Sprague-Dawley rats of either sex. Tissue was then trypsinized (0.25% v/v), and mechanically dissociated in 1×HBSS (Invitrogen) containing 10 mM HEPES. Neurons were plated at a density of 120×10^3 cells/ml onto 18-mm diameter glass coverslips (Assistent) pre-coated with 50 μg/ml poly-D,L-ornithine (Sigma-Aldrich) in plating medium composed of Minimum Essential Medium (MEM, Sigma-Aldrich) supplemented with horse serum (10% v/v, Invitrogen), L-glutamine (2 mM) and Na+ pyruvate (1 mM) (Invitrogen). After attachment for 3-4 h, cells were incubated in culture medium composed of Neurobasal medium supplemented with B27 (1×), L-glutamine (2 mM), and antibiotics (penicillin 200 units/ml, streptomycin, 200 μg/ml; Invitrogen) for up to 4 weeks at 37° C. in a 5% CO2 humidified incubator. Each week, one fifth of the culture medium volume was renewed.
# For all experiments on hippocampal cultures, neurons were pre-incubated for 2 hours with either DMSO, PCPZ or CLP257 in a CO2 incubator set at 37° C. Drugs were added directly to the culture medium. For electrophysiology experiments, neurons were also recorded in presence of these drugs in the bath. For biochemistry experiments on rat hippocampo-cortical slices, slices were incubated with either DMSO (vehicle), CLP257, PCPZ, WNK463 or sodium orthovanadate for 2 hours in interface chambers set at 37° C. For human tissue experiments, slices were pre-incubated with either DMSO, CLP257 or PCPZ for 2 hours in interface chambers set at 37° C. and then also recorded in presence of these compounds.
# Neurons were washed with ice-cold PBS three times, and then incubated with PBS supplemented with 0.5-1 mg/ml EZ-Link Sulfo-NHS-SS-Biotin (Pierce, Rockford, IL, USA) at 4° C. for 30 min under gentle agitation. Biotinylation was stopped by addition of Tris-HCl (50 mM; pH 7.4) and cells lysed in a modified RIPA buffer containing (in mM): Tris-HCl 50 (pH 7.4), NaCl 150, 1% Nonidet P-40, 0.5% DOC, 0.1% SDS, NaF 50, Na3VO4 1 and protease and phosphatase inhibitors (Roche). Lysates were then collected by gently scraping the bottom of each well. After complete homogenization, samples were centrifuged and the supernatant was collected. A small fraction of the lysates was kept for input KCC2 and total protein quantification using BCA kit (Thermo Scientific). Lysates were mixed with a 50% slurry of Neutravidin beads (Thermo Scientific) and rotated overnight at 4° C. […]
# Samples were subjected to electrophoresis on polyacrylamide gradient gels (4-12%) and transferred to nitrocellulose membranes. […] Fluorescence was detected using Odyssey infrared imaging system (LI-COR Bioscience). […]
# KCC2 [2] = target: T1, KCC2 (Rattus norvegicus, UniProt Q63633); assay: Somato-dendritic EGABA gradient (chloride extrusion), whole-cell patch clamp of hippocampal neurons; assay type: cell-based
# T1 construct: endogenous in cells; host or cells: primary rat hippocampal neurons (E18-19 Sprague-Dawley)
# T1 sequence (Q63633 1-1116 isoform Q63633-2): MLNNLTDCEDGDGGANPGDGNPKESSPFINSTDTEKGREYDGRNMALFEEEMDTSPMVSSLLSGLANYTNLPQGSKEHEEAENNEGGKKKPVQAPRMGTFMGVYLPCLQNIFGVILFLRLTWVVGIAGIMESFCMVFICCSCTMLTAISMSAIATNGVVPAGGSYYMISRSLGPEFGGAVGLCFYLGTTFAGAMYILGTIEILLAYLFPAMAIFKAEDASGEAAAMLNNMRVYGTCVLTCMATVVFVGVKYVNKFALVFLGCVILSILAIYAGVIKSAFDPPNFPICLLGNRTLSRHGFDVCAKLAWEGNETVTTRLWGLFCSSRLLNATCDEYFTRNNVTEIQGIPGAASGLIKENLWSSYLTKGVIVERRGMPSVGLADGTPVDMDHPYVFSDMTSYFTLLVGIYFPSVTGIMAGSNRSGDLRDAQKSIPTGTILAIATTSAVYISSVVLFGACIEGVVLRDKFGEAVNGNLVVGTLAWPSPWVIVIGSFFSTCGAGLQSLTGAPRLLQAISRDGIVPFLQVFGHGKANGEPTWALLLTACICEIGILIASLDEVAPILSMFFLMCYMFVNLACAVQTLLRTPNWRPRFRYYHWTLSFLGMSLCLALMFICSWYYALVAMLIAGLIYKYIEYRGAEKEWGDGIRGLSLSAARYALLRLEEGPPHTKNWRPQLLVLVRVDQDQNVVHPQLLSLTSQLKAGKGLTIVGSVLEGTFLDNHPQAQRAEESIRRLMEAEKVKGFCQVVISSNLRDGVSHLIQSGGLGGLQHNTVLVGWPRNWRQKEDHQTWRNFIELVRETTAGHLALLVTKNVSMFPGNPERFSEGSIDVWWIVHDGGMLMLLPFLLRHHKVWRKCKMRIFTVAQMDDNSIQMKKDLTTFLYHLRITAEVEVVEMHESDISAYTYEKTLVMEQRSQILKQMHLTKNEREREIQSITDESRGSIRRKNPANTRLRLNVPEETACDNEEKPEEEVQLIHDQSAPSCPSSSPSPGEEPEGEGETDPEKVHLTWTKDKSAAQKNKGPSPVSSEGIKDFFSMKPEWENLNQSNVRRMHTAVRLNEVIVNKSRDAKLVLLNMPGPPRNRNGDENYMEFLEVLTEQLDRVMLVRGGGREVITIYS
"somato-dendritic gradient of EGABA (ΔEGABA) (KCC2 [2]; 100 μM CLP257, 2 h, RubiGABA 30 μM uncaging, control 5.32±1.08) [mV/100 μm]","somato-dendritic gradient of EGABA (ΔEGABA) (KCC2 [2]; 10 μM PCPZ, 2 h, isoguvacine 100 μM, control 6.56±0.83) [mV/100 μm]",Compound,"effect on total KCC2 expression (KCC2 [1]; 100 μM CLP257, 2 h, p=0.893)","effect on ratio of surface to total KCC2 expression (KCC2 [1]; 100 μM CLP257, 2 h, p=0.8)","effect on total KCC2 expression (KCC2 [1]; 10 μM PCPZ, 2 h, p=0.137)","effect on ratio of surface to total KCC2 expression (KCC2 [1]; 10 μM PCPZ, 2 h, p=0.735)"
9.70±1.13,–,"O=C1N=C(N2CCCCN2)S/C1=C\c1ccc(F)cc1O [CLP257, (5Z)-5-[(4-Fluoro-2-hydroxyphenyl)methylene]-2-(tetrahydro-1-(2H)-pyridazinyl)-4(5H)-thiazolone]",no effect,no effect,–,–
–,11.50±1.53,"CN1CCN(CCCN2c3ccccc3Sc3ccc(Cl)cc32)CC1 [PCPZ, prochlorperazine]",–,–,no effect,no effect
